Results reported in ChEMBL document CHEMBL1133226, “Combinatorial diversification of indinavir: in vivo mixture dosing of an HIV protease inhibitor library” (Bioorg Med Chem Lett, 2000).

Columns and labels:
[1] = test system: MT4; test: Compound was tested in vitro for inhibition of spread of viral infection in MT-4 human T-lymphoid cells infected with the IIIb isolate; assay type: functional; conditions: read-out: CIC95
[2] = target: Human immunodeficiency virus type 1 protease (Human immunodeficiency virus 1, UniProt Q72874); test: In vitro inhibitory concentration to prevent cleavage of a substrate by the protease enzyme

Row | SMILES | IC95 [1] | IC50 [2]
1 | CC(C)(C)NC(=O)[C@@H]1CN(Cc2ccc(Cl)c(Cl)c2)CCN1C[C@@H](O)C[C@@H](Cc1ccccc1)C(=O)N[C@H]1c2ccccc2C[C@H]1O | 200 nM | 1.1 nM
2 | CC(C)(C)NC(=O)[C@@H]1CN(Cc2cccnc2)CCN1C[C@@H](O)C[C@@H](Cc1ccccc1)C(=O)N[C@H]1c2ccccc2C[C@H]1O [INDINAVIR] | 50.5 nM | 
3 | CC(C)(C)NC(=O)[C@@H]1CN(S(C)(=O)=O)CCN1C[C@@H](O)C[C@@H](Cc1ccccc1)C(=O)N[C@H]1c2ccccc2C[C@H]1O | 400 nM | 1.6 nM
